Patent US4795751A, “5-substituted-6,8-difluoroquinolines useful as antibacterial agents” (Dainippon Pharmaceutical Co., Ltd., priority 1985, dated 1989)
≈ marks a conversion by molar mass, not a printed value.

Legend:
[1] = tested on: Ac. calcoaceticus P-6901; experiment: In vitro antibacterial activity, twofold agar-dilution method; type: cell-based; conditions: Acinetobacter calcoaceticus, P6901; Ac. calcoaceticus P-6901 (Gram -); Mueller-Hinton agar, 20 h, 37° C.; calculated for free base; read-out: minimum inhibitory concentration (MIC)
Method: (§1) The numbers in the table show minimum inhibitory concentrations (MIC) (μg/ml), calculated for free base. The minimum inhibitory concentration was determined by the twofold agar-dilution method, which was recommended by Japan Society of Chemotherapy (Chemotherapy, 29(1), 76(1981)), using Muller-Hinton agar. One loopful of an overnight culture of test organisms in Mueller-Hinton broth was inoculated onto 10-ml drug-containing agar layers in petri dishes. Bacterial inocula contained approximately 10^6 colonyl-formingunits. Bacterial growth was observed after 20-hour incubation at 37° C. The MIC was defined as the lowest drug concentration which prevented visible bacterial growth.

[2] = tested on: Al. faecalis P-7001; experiment: as above; type: cell-based; conditions: Alcaligenes faecalis, P7001; Al. faecalis P-7001 (Gram -); Mueller-Hinton agar, 20 h, 37° C.; calculated for free base; read-out: minimum inhibitory concentration (MIC)
Method: as §1

[3] = tested on: B. subtilis PCI 219; experiment: as above; type: cell-based; conditions: Bacillus subtilis, PCI219; B. subtilis PCI 219 (Gram +); Mueller-Hinton agar, 20 h, 37° C.; calculated for free base; read-out: minimum inhibitory concentration (MIC)
Method: as §1

[4] = tested on: E. coli P-51213; experiment: as above; type: cell-based; conditions: Escherichia coli, P51213; E. coli P-51213 (Gram -); Mueller-Hinton agar, 20 h, 37° C.; calculated for free base; read-out: minimum inhibitory concentration (MIC)
Method: as §1

[5] = tested on: P. aeruginosa No. 12; experiment: as above; type: cell-based; conditions: Pseudomonas aeruginosa; P. aeruginosa No. 12 (Gram -); Mueller-Hinton agar, 20 h, 37° C.; calculated for free base; read-out: minimum inhibitory concentration (MIC)
Method: as §1

[6] = tested on: S. aureus 209P JC-1; experiment: as above; type: cell-based; conditions: Staphylococcus aureus; S. aureus 209P JC-1 (Gram +); Mueller-Hinton agar, 20 h, 37° C.; calculated for free base; read-out: minimum inhibitory concentration (MIC)
Method: as §1

[7] = tested on: S. aureus No. 50774; experiment: as above; type: cell-based; conditions: Staphylococcus aureus; S. aureus No. 50774 (Gram +); Mueller-Hinton agar, 20 h, 37° C.; calculated for free base; read-out: minimum inhibitory concentration (MIC)
Method: as §1

[8] = tested on: S. aureus No. 80; experiment: as above; type: cell-based; conditions: Staphylococcus aureus; S. aureus No. 80 (Gram +); Mueller-Hinton agar, 20 h, 37° C.; calculated for free base; read-out: minimum inhibitory concentration (MIC)
Method: as §1

[9] = tested on: S. epidermidis No. 8; experiment: as above; type: cell-based; conditions: Staphylococcus epidermidis; S. epidermidis No. 8 (Gram +); Mueller-Hinton agar, 20 h, 37° C.; calculated for free base; read-out: minimum inhibitory concentration (MIC)
Method: as §1

[10] = tested on: M. bovis P-7101; experiment: microbe, parasite or virus in culture; type: cell-based; conditions: Mycobacterium tuberculosis variant bovis, P7101, 20 h, read-out: minimum inhibitory concentration (MIC)
[11] = tested on: Streptococcus pyogenes A65; experiment: In vivo efficacy against systemic infections in mice; parameters: species or system Streptococcus pyogenes; male mice (ddY-S); conditions: A65, 168 h, oral, intraperitoneal infection 3×10^7 cells, twice, immediately and 6 h after infection, 7 days, calculated for free base, read-out: median effective dose (ED50)
Method: (§2) Compounds were each dissolved in deionized water. Each of the solutions was orally administered to mice infected with each of the test organisms under the conditions shown hereinbelow, and the median effective dose (ED50) was calculated by probit analysis. The numerals in the table show ED50 (mg/kg) value, calculated for free base.
(§3) Mice: Male mice (ddY-S) weighing about 20 g
Streptococcus pyogenes A65
Intraperitoneal infection with 3×10^7 cells per mouse suspended in brain heart infusion broth.
(§4) Four times, immediately, 6, 24 and 30 hours after infection in case of Streptococcus pneumoniae 1 Neufeld. Twice, immediately and 6 hours after infection in case of other organisms.
(§5) For 14 days in case of Staphylococcus aureus 50774 and Streptocuccus pneumoniae 1 Neufeld. For 7 days in case of other organisms.

[12] = tested on: Pseudomonas aeruginosa 12; experiment: as above; parameters: species or system Pseudomonas aeruginosa; male mice (ddY-S); conditions: Pseudomonas aeruginosa, 12, 168 h, oral, intraperitoneal infection about 5×10^3 cells, 4% mucin, twice, immediately and 6 h after infection, 7 days, calculated for free base, read-out: median effective dose (ED50)
Method: as §2, §3
Pseudomonas aeruginosa 12
Intraperitoneal infection with about 5×10^3 cells per mouse suspended in tryptosoy broth with 4% mucin.
as §4, §5

[13] = Acute oral toxicity in mice; conditions: mouse, in vivo, po
Method: (§6) A solution containing each of compounds 1, 2 and 3 of this invention in various concentrations was orally given to male mice (ddY) at a dose of 0.1 ml per 10 g of body weight. The number of dead mice was counted after 7 days, and the value of median lethal dose (LD50, mg/kg) was calculated in accordance with the Behrens-Kaerber method.

[14] = tested on: male mice (ddY); experiment: Acute oral toxicity in mice; conditions: conclusion in words from Table 5
Method: as §6

Row | SMILES | MIC [1] | MIC [2] | MIC [3] | MIC [4] | MIC [5] | MIC [6] | MIC [7] | MIC [8] | MIC [9] | MIC [10] | ED50 [11] | ED50 [12] | LD50 at 168 h [13] | oral toxicity [14]
1 | CN1CCN(c2c(F)c(N)c3c(=O)c(C(=O)O)cn(C4CC4)c3c2F)CC1 [Compound 4, 5-Amino-1-cyclopropyl-6,8-difluoro-7-(4-methyl-1-piperazinyl)-1,4-dihydro-4-oxoquinoline-3-carboxylic acid] | 0.025 µg/mL (≈ 0.0661 µM) | 0.2 µg/mL (≈ 0.529 µM) | 0.1 µg/mL (≈ 0.264 µM) | 0.1 µg/mL (≈ 0.264 µM) | 0.2 µg/mL (≈ 0.529 µM) | 0.1 µg/mL (≈ 0.264 µM) | 0.05 µg/mL (≈ 0.132 µM) | 0.025 µg/mL (≈ 0.0661 µM) | 0.05 µg/mL (≈ 0.132 µM) | 0.39 µg/mL (≈ 1.03 µM) | – | – | – | –
2 | CCn1cc(C(=O)O)c(=O)c2c(N)c(F)c(N3CCNCC3)c(F)c21 [Compound A, 5-amino-1-ethyl-6,8-difluoro-7-(1-piperazinyl)-1,4-dihydro-4-oxoquinoline-3-carboxylic acid, reference compound] | 0.2 µg/mL (≈ 0.568 µM) | 0.78 µg/mL (≈ 2.21 µM) | 0.39 µg/mL (≈ 1.11 µM) | 0.39 µg/mL (≈ 1.11 µM) | 0.78 µg/mL (≈ 2.21 µM) | 0.2 µg/mL (≈ 0.568 µM) | 0.2 µg/mL (≈ 0.568 µM) | 0.2 µg/mL (≈ 0.568 µM) | 0.39 µg/mL (≈ 1.11 µM) | 3.13 µg/mL (≈ 8.88 µM) | > 25 mg/kg | 15 mg/kg | – | –
3 | CCN1CCN(c2c(F)c(N)c3c(=O)c(C(=O)O)cn(C4CC4)c3c2F)CC1 [Compound 5, 5-Amino-1-cyclopropyl-6,8-difluoro-7-(4-ethyl-1-piperazinyl)-1,4-dihydro-4-oxoquinoline-3-carboxylic acid] | 0.0125 µg/mL (≈ 0.0319 µM) | 0.2 µg/mL (≈ 0.51 µM) | 0.1 µg/mL (≈ 0.255 µM) | 0.05 µg/mL (≈ 0.127 µM) | 0.39 µg/mL (≈ 0.994 µM) | 0.05 µg/mL (≈ 0.127 µM) | 0.025 µg/mL (≈ 0.0637 µM) | 0.025 µg/mL (≈ 0.0637 µM) | 0.05 µg/mL (≈ 0.127 µM) | 0.39 µg/mL (≈ 0.994 µM) | – | – | – | –
4 | Nc1c(F)c(N2CCNC(CF)C2)c(F)c2c1c(=O)c(C(=O)O)cn2C1CC1 (stereo not drawn) [Compound 6, 5-Amino-1-cyclopropyl-6,8-difluoro--7-(3-fluoromethyl-1-piperazinyl)-1,4-dihydro-4-oxoquinoline-3-carboxylic acid] | 0.0063 µg/mL (≈ 0.0159 µM) | 0.05 µg/mL (≈ 0.126 µM) | 0.025 µg/mL (≈ 0.0631 µM) | 0.05 µg/mL (≈ 0.126 µM) | 0.2 µg/mL (≈ 0.505 µM) | 0.025 µg/mL (≈ 0.0631 µM) | 0.0125 µg/mL (≈ 0.0315 µM) | 0.0063 µg/mL (≈ 0.0159 µM) | 0.025 µg/mL (≈ 0.0631 µM) | 0.1 µg/mL (≈ 0.252 µM) | – | – | – | –
5 | Nc1c(F)c(N2CCNCC2)c(F)c2c1c(=O)c(C(=O)O)cn2C1CC1 [Compound 3, 5-Amino-1-cyclopropyl-6,8-difluoro-7-(1-piperazinyl)-1,4-dihydro-4-oxoquinoline-3-carboxylic acid] | 0.05 µg/mL (≈ 0.137 µM) | 0.2 µg/mL (≈ 0.549 µM) | 0.1 µg/mL (≈ 0.274 µM) | 0.1 µg/mL (≈ 0.274 µM) | 0.2 µg/mL (≈ 0.549 µM) | 0.05 µg/mL (≈ 0.137 µM) | 0.05 µg/mL (≈ 0.137 µM) | 0.05 µg/mL (≈ 0.137 µM) | 0.05 µg/mL (≈ 0.137 µM) | 0.39 µg/mL (≈ 1.07 µM) | – | – | > 2000 mg/kg | low oral toxicity
6 | CC1CN(c2c(F)c(N)c3c(=O)c(C(=O)O)cn(C4CC4)c3c2F)CC(C)N1 (stereo not drawn) [Compound 2, 5-Amino-1-cyclopropyl-6,8-difluoro-7-(3,5-dimethyl-1-piperazinyl)-1,4-dihydro-4-oxoquinoline-3-carboxylic acid] | 0.0125 µg/mL (≈ 0.0319 µM) | 0.2 µg/mL (≈ 0.51 µM) | 0.05 µg/mL (≈ 0.127 µM) | 0.05 µg/mL (≈ 0.127 µM) | 0.2 µg/mL (≈ 0.51 µM) | 0.05 µg/mL (≈ 0.127 µM) | 0.025 µg/mL (≈ 0.0637 µM) | 0.0125 µg/mL (≈ 0.0319 µM) | 0.025 µg/mL (≈ 0.0637 µM) | 0.39 µg/mL (≈ 0.994 µM) | – | – | > 2000 mg/kg | low oral toxicity
